Converted amounts (≈) assume the structure as drawn. Where two headings read alike, the source gives them in different places. Bridge positions count the residues as written; N and C are the ends. Peptide text beside a SMILES is read from it.
Key:
[1] = system: Cryptococcus neoformans IFM 5844; assay: microbe, parasite or virus in culture; assay type: cell-based; settings: five-fold diluted YNB + 1 % dextrose, 5 × 10^4 cells/mL, 30 °C, 72 h, OD 620 nm, ≥ 90 % growth inhibition, tested 25 to 0.39 µM, three biological replicates
Experimental: (§1) The susceptibility of Cryptococcus neoformans IFM 5844 to 20 peptides (Supplementary Table 1) was tested in a widely used synthetic medium to cultivate yeasts (YNB) and in a serum-free medium what is able to support the proliferation of macrophage cells (X-VIVO).
YNB medium: five-fold diluted Difco Yeast Nitrogen Base w/o Amino Acids medium (Becton, Dickinson and Company, Sparks, MD, USA) supplemented with 1 % dextrose
(§2) The minimal inhibitory concentration (MIC) of each peptide was determined by using micro-dilution assay. The C. neoformans suspensions were adjusted to 5 × 10^4 cells/mL concentration in either YNB or X-VIVO medium. A 96-well microtiter plate was prepared by adding 95 µL suspension per well followed by 5 µL of serially two-fold diluted peptide solutions achieving a final volume of 100 µl. The concentration of the peptides ranged from 25 to 0.39 µM. For control samples, 5 µL pure medium was added to the yeast cell suspension instead of peptides. Plates were incubated at 37 °C for 48 h in X-VIVO medium and 30 °C for 72 h in YNB medium. After incubation, optical density was measured at 620 nm using a SPECTROstar Nano plate reader (BMG LabTech, Offenburg, Germany). […] The experiments were carried out in three independent biological replicates.

[2] = system: C. neoformans IFM 5844 cells; assay: Cell membrane permeability, calcein-AM assay by flow cytometry; assay type: cell-based, Cryptococcus neoformans; settings: half-MIC, 2 h, 30 °C, YNB
Experimental: The effect of the peptides on the cell membrane permeability of C. neoformans IFM 5844 cells was checked by flow cytometry with calcein-AM assay ([Olson, et al., 2001]). Calcein-acetoxymethyl ester (calcein-AM) is a membrane-permeable live-cell dye that, upon entering the cell, is cleaved by intracellular esterases, converting it into calcein, a membrane-impermeable fluorescent marker. The assay was carried out by suspending a total of 1 × 10^7 cells in 100 µl YNB medium containing 20 µg/mL indomethacin (Sigma-Aldrich, Saint Louis, MO, USA) and incubating them at 30 °C for 30 min to inhibit calcein transporters. Following this pre-treatment, membrane-permeable calcein-AM (Invitrogen, Waltham, MA, USA) was added to a final concentration of 5 µg/mL, and the samples were incubated at 30 °C for 3 h allowing the calcein-AM to enter the cells where esterases converted it to fluorescent calcein. After incubation, cells were washed twice with sterile distilled water and subsequently exposed to peptides at half-MIC concentrations in YNB medium for 2 h at 30 °C. Following peptide treatment, cells were washed twice with sterile distilled water, and fluorescence intensity was measured using a FlowSight® flow cytometer (Amnis-EMD Millipore) equipped with a 488-nm excitation laser. Intact cells stained with calcein-AM but not exposed to peptides served as controls. To ensure statistical reliability, four independent experiments were conducted, and fluorescence intensity was recorded from 10,000 cells per sample during each experiment.

[3] = system: Cryptococcus neoformans IFM 5844; assay: Minimal fungicidal concentration (MFC) determination, spotting on YPD; assay type: cell-based; settings: cultures from MIC assays diluted and spotted onto solid YPD, 30 °C, 48 h
Experimental: Minimal fungicidal concentration (MFC) determination. To assess fungicidal activity, both control and peptide-treated cultures from the MIC assays were diluted 10-fold and 100-fold in sterile distilled water. Five µL from each dilution was then spotted onto solid YPD medium (1 % pepton, 1 % dextrose, 0.5 % yeast extract, 2 % agar). The plates were incubated at 30 °C for 48 h and fungal growth was evaluated. MFC was defined as the lowest peptide concentration at which no visible fungal growth was detected, indicating complete fungicidal activity.

[4] = system: Cryptococcus neoformans IFM 5844; assay type: cell-based; settings: half-diluted X-VIVO 15 medium, 37 °C, 48 h, OD 620 nm, ≥ 90 % growth inhibition, tested 25 to 0.39 µM, three biological replicates
Experimental: as §1
X-VIVO medium: half-diluted X-VIVO™ 15 cell culture medium (Lonza, Verviers, Belgium).
as §2

[5] = Cryptococcus neoformans, IFM5844, read-out: MIC

| Molecule | fungistatic or fungicide mode of action [3] | MIC ([1]; read-out: MIC) [µM] | MIC [1] | also measured |
| --- | --- | --- | --- | --- |
| OC(Cn1cncn1)(Cn1cncn1)c1ccc(F)cc1F [Fluconazole, fluconazole, reference compound] |  |  |  | MIC [1, 5]: 12.5 µM |
| CC[C@H](C)[C@H](NC(=O)[C@H](CCCCN)NC(=O)[C@H](Cc1ccccc1)NC(=O)[C@H](CC(C)C)NC(=O)[C@@H]1CCCN1C(=O)[C@H](CCCCN)NC(=O)[C@H](CCCCN)NC(=O)[C@H](CO)NC(=O)[C@@H](N)CCCCN)C(=O)N[C@@H](C)C(=O)N[C@@H](CCCCN)C(=O)N[C@@H](CS)C(=O)N[C@H](C(=O)N[C@@H](CCC(=O)O)C(=O)N[C@@H](CC(N)=O)C(=O)N[C@H](C(=O)N[C@@H](CS)C(=O)N[C@H](C(=O)N[C@@H](CC(C)C)C(=O)N[C@@H](C)C(=O)N[C@@H](Cc1ccc(O)cc1)C(=O)N[C@@H](CCCCN)C(N)=O)C(C)C)C(C)C)C(C)C [NCR169C17–38W10,20/A] (H-KSKKPLFKIAKCVENVCVLAYK-NH2; N-terminus assumed) | fungicidal effect | 6.25 |  | calcein leakage / membrane permeability disruption [2]: highest calcein leakage |
| CC[C@H](C)[C@H](NC(=O)[C@H](CCCCN)NC(=O)[C@H](Cc1ccccc1)NC(=O)[C@H](CC(C)C)NC(=O)[C@@H]1CCCN1C(=O)[C@H](CCCCN)NC(=O)[C@H](CCCCN)NC(=O)[C@H](CO)NC(=O)[C@@H](N)CCCCN)C(=O)N[C@@H](Cc1c[nH]c2ccccc12)C(=O)N[C@@H](CCCCN)C(=O)N[C@@H](CS)C(=O)N[C@H](C(=O)N[C@@H](CCC(=O)O)C(=O)N[C@@H](CC(N)=O)C(=O)N[C@H](C(=O)N[C@@H](CS)C(=O)N[C@H](C(=O)N[C@@H](CC(C)C)C(=O)N[C@@H](Cc1c[nH]c2ccccc12)C(=O)N[C@@H](Cc1ccc(O)cc1)C(=O)N[C@@H](CCCCN)C(N)=O)C(C)C)C(C)C)C(C)C [NCR169C17–38] (H-KSKKPLFKIWKCVENVCVLWYK-NH2; N-terminus assumed) | fungicidal effect | 3.12 |  | calcein leakage / membrane permeability disruption [2]: highest calcein leakage |
| CC[C@H](C)[C@H](NC(=O)[C@H](CCCCN)NC(=O)[C@H](Cc1ccccc1)NC(=O)[C@H](CC(C)C)NC(=O)[C@@H]1CCCN1C(=O)[C@H](CCCCN)NC(=O)[C@H](CCCCN)NC(=O)[C@H](CO)NC(=O)[C@@H](N)CCCCN)C(=O)N[C@@H](Cc1c[nH]c2ccccc12)C(=O)N[C@@H](CCCCN)C(=O)N[C@H]1CSSC[C@@H](C(=O)N[C@H](C(=O)N[C@@H](CC(C)C)C(=O)N[C@@H](Cc2c[nH]c3ccccc23)C(=O)N[C@@H](Cc2ccc(O)cc2)C(=O)N[C@@H](CCCCN)C(N)=O)C(C)C)NC(=O)[C@H](C(C)C)NC(=O)[C@H](CC(N)=O)NC(=O)[C@H](CCC(=O)O)NC(=O)[C@H](C(C)C)NC1=O [NCR169C17–38ox] (H-KSKKPLFKIWKCVENVCVLWYK-NH2; disulfide 12-17; N-terminus assumed) | fungicidal effect | 3.12 |  |  |
| CC[C@H](C)[C@H](NC(=O)[C@H](CCCCN)NC(=O)[C@H](CCCCN)NC(=O)[C@H](C)NC(=O)[C@H](CC(C)C)NC(=O)[C@H](C)NC(=O)[C@H](C)NC(=O)[C@H](CC(C)C)NC(=O)[C@H](C)NC(=O)[C@H](CCCCN)NC(=O)[C@H](CCCNC(=N)N)NC(=O)[C@H](CCCNC(=N)N)NC(=O)[C@H](CCCNC(=N)N)NC(=O)[C@H](CS)NC(=O)[C@H](Cc1ccc(O)cc1)NC(=O)[C@H](CC(C)C)NC(=O)[C@@H]1CCCN1C(=O)[C@H](CCCNC(=N)N)NC(=O)[C@H](CCCNC(=N)N)NC(=O)[C@H](CS)NC(=O)[C@H](CCC(N)=O)NC(=O)[C@@H](N)CCC(N)=O)C(=O)N[C@@H](CC(C)C)C(N)=O [NCR247C-X2] (H-QQCRRPLYCRRRKALAALAKKIL-NH2; N-terminus assumed) | fungicidal effect | 0.78 |  | calcein leakage / membrane permeability disruption [2]: highest calcein leakage; proportion of calcein-stained cells ([2]; stained untreated control 75 %, four independent experiments): 8%; MIC [4]: 1.56 µM (≈ 4.3 µg/mL) |
| CC(C)C[C@H](NC(=O)[C@@H]1CCCN1C(=O)[C@H](CCCNC(=N)N)NC(=O)[C@H](CCCNC(=N)N)NC(=O)[C@H](CS)NC(=O)[C@H](CCC(N)=O)NC(=O)[C@@H](N)CCC(N)=O)C(=O)N[C@@H](Cc1ccc(O)cc1)C(=O)N[C@@H](CS)C(=O)N[C@@H](CCCNC(=N)N)C(=O)N[C@@H](CCCNC(=N)N)C(=O)N[C@@H](CCCNC(=N)N)C(N)=O [NCR247C] (H-QQCRRPLYCRRR-NH2; N-terminus assumed) | fungicidal effect | 6.25 |  | calcein leakage / membrane permeability disruption [2]: highest calcein leakage |
| CC[C@H](C)[C@H](NC(=O)[C@@H]1CCCN1C(=O)[C@@H](NC(=O)[C@H](CS)NC(=O)[C@H](Cc1ccc(O)cc1)NC(=O)[C@H](CO)NC(=O)[C@H](CCCCN)NC(=O)[C@H](CCCNC(=N)N)NC(=O)[C@H](CS)NC(=O)[C@H](CCCNC(=N)N)NC(=O)[C@@H](NC(=O)[C@H](CC(N)=O)NC(=O)[C@H](C)NC(=O)[C@H](CCCNC(=N)N)NC(=O)[C@H](CCCNC(=N)N)NC(=O)[C@H](CC(C)C)NC(=O)[C@H](CCCCN)NC(=O)[C@@H]1CCCN1C(=O)[C@H](CS)NC(=O)[C@H](CC(=O)O)NC(=O)[C@H](CCCCN)NC(=O)[C@H](CC(N)=O)NC(=O)[C@@H](NC(=O)[C@H](CCCCN)NC(=O)[C@H](CS)NC(=O)[C@H](CC(=O)O)NC(=O)[C@H](CO)NC(=O)[C@H](CC(C)C)NC(=O)[C@@H](NC(=O)[C@H](CC(C)C)NC(=O)[C@H](CO)NC(=O)[C@H](Cc1ccccc1)NC(=O)[C@@H](N)Cc1c[nH]cn1)[C@@H](C)CC)[C@@H](C)O)C(C)C)C(C)C)C(N)=O [NCR335C1–33] (H-HFSLILSDCKTNKDCPKLRRANVRCRKSYCVPI-NH2; N-terminus assumed) | fungicidal effect |  |  |  |
| C[C@@H]1[C@H](O)[C@@H](C)/C=C/C=C/C=C/C=C/C=C/C=C/C=C/[C@H](O[C@@H]2O[C@H](C)[C@@H](O)[C@H](N)[C@@H]2O)C[C@@H]2O[C@](O)(C[C@@H](O)C[C@@H](O)[C@H](O)CC[C@@H](O)C[C@@H](O)CC(=O)O[C@H]1C)C[C@H](O)[C@H]2C(=O)O [amphotericin B, reference compound] |  |  |  | MIC [1, 5]: 1.56 µM |
| CKTNKDCP [NCR335C9–16, short derivative of NCR335 C-terminal region] |  |  | lacked inhibitory effect |  |
| FWGQNRNIMKHRGQ [NCR335N16–29, 14 amino acid-long N-terminal fragment of NCR335] |  |  | ineffective |  |
| HFSLILSD [NCR335C1–8, short derivative of NCR335 C-terminal region] |  |  | lacked inhibitory effect |  |
| HFSLILSDCKTNKDCP [NCR335C1–16, short derivative of NCR335 C-terminal region] |  |  | lacked inhibitory effect |  |
| KLRRANVRCRK [NCR335C17–27, further truncation of NCR335C17–33] |  |  | lacked inhibitory effect |  |
| RLNTTFRPLNFKMLRFWGQNRNIMKHRGQKVHFSLILSDCKTNKDCPKLRRANVRCRKSYCVPI [NCR335, 64-amino-acid-long cationic M. truncatula NCR peptide] |  | 3.12 |  |  |
